Source: patent US10517889B2, “Modulators of SMAD7 expression” (Ionis Pharmaceuticals, Inc., priority 2017, dated 2019)
Strand notation (5' to 3'): a small letter for the sugar, then the base; units joined by * are phosphorothioate-linked, units joined directly phosphodiester-linked; [ ] holds rarer units or linkages, { } end groups; capitals alone tell only the bases. k = constrained ethyl (cEt); [5mC] = 5-methylcytosine; d = 2'-deoxy (DNA)

test system: human SMAD7 mRNA; assay: Antisense inhibition of human SMAD7 mRNA expression in Hep3B cells by 3-10-3 cEt gapmers, 10,000 nM, electroporation (Example 2); format: cell-based; details: Hep3B cells, 10,000 nM antisense oligonucleotide, electroporation, approximately 24 hours, RT-PCR primer probe set RTS5062, relative to untreated control cells
Summary of the method: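 qRT-PCR (RTS5062) of SMAD7 mRNA, normalised to RIBOGREEN total RNA, gave percent inhibition relative to untreated controls. Hep3B cells at 20,000 per well received 10,000 nM oligonucleotide by electroporation, with ~24 h treatment.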

Substance	% Inhibition [%]
798860 (kT*kG*kG*d[5mC]*dG*dG*dA*d[5mC]*dT*dT*dG*dA*dT*kG*kA*kA; antisense) [compound 798860]	22
798910 (k[5mC]*kA*k[5mC]*dG*d[5mC]*dG*dG*d[5mC]*dT*dA*d[5mC]*d[5mC]*dG*kG*k[5mC]*kT; antisense) [compound 798910]	42
800030 (kA*kA*kA*d[5mC]*dA*d[5mC]*dA*dG*dT*dT*d[5mC]*d[5mC]*d[5mC]*kT*kG*kA; antisense) [compound 800030]	0
799970 (kT*k[5mC]*k[5mC]*dT*d[5mC]*dA*dG*dG*dA*dA*dA*d[5mC]*dA*k[5mC]*kA*kG; antisense) [compound 799970]	43
798857 (kT*kG*k[5mC]*dT*dG*d[5mC]*dG*dG*dT*dT*dG*dT*dA*k[5mC]*kA*k[5mC]; antisense) [compound 798857]	11
800015 (k[5mC]*kT*kT*dT*dA*dA*dG*dG*dT*dG*dT*dT*dG*k[5mC]*k[5mC]*k[5mC]; antisense) [compound 800015]	26

same assay, conditions: Hep3B cells, electroporation with 10,000 nM antisense oligonucleotide, approximately 24 hours, RTS5062, percent inhibition of SMAD7 mRNA relative to untreated control cells

Substance	% Inhibition [%]
799730 (antisense kT*kA*kA*dA*dT*dT*dG*dA*dG*dA*dA*d[5mC]*dT*kG*kT*kG) [compound 799730]	60
799726 (antisense kG*kT*kA*dT*d[5mC]*d[5mC]*dT*dT*dT*d[5mC]*dA*d[5mC]*dG*kA*kG*kG) [compound 799726]	49
799704 (antisense kA*k[5mC]*k[5mC]*dA*dA*dT*dG*dG*d[5mC]*dA*dT*dT*dG*kA*kA*kT) [compound 799704]	12

same assay, conditions: Hep3B cells, electroporation with 10,000 nM antisense oligonucleotide, approximately 24 hours, SMAD7 mRNA by RT-PCR (RTS5062), relative to untreated control cells

Substance	% Inhibition [%]
798699 (antisense k[5mC]*kG*k[5mC]*dA*dG*d[5mC]*dT*d[5mC]*dG*d[5mC]*d[5mC]*dT*d[5mC]*k[5mC]*kT*k[5mC]) [compound 798699]	51
799348 (kA*kT*kA*dA*dA*dA*dG*dG*dA*dA*dA*dG*dG*kA*kG*kT; antisense) [compound 799348]	21
799351 (kT*kT*kT*dA*dG*d[5mC]*dT*dG*dT*d[5mC]*dA*dG*dA*kT*kA*kA; antisense) [compound 799351]	31
830153 (antisense kG*k[5mC]*k[5mC]*dT*d[5mC]*dA*dG*d[5mC]*dA*dG*dT*dT*dA*kA*kT*kA) [compound 830153]	21
798667 (kT*kG*kG*d[5mC]*dA*dT*dG*d[5mC]*dG*d[5mC]*d[5mC]*dA*dG*kT*k[5mC]*kT; antisense) [compound 798667]	21
830110 (k[5mC]*k[5mC]*kA*dT*dT*d[5mC]*dA*dT*dT*dA*dA*dG*d[5mC]*k[5mC]*k[5mC]*kG; antisense) [compound 830110]	36
799944 (antisense k[5mC]*kT*kG*d[5mC]*dA*dG*d[5mC]*dA*dA*dG*dA*dA*dG*kT*kG*kG) [compound 799944]	5
830212 (kG*k[5mC]*kA*dG*dG*dG*dT*dG*dG*dA*dG*dA*d[5mC]*k[5mC]*kG*kG; antisense) [compound 830212]	43
799929 (antisense kT*kG*k[5mC]*d[5mC]*d[5mC]*dA*dG*dG*d[5mC]*dT*dT*dG*dG*kT*kT*k[5mC]) [compound 799929]	9
800103 (antisense kG*kG*kA*d[5mC]*dG*dA*dG*dA*d[5mC]*dA*dG*dA*dA*kA*kG*kA) [compound 800103]	4
830181 (antisense kG*k[5mC]*kG*dG*d[5mC]*dT*dT*d[5mC]*d[5mC]*dT*dG*dT*dG*k[5mC]*k[5mC]*k[5mC]) [compound 830181]	10
799354 (kA*kT*k[5mC]*dT*dA*d[5mC]*dT*d[5mC]*dA*d[5mC]*d[5mC]*dA*dG*kT*kT*kG; antisense) [compound 799354]	0
830152 (antisense k[5mC]*k[5mC]*k[5mC]*dG*dG*dA*dG*dA*dG*dG*dA*dA*dG*k[5mC]*k[5mC]*kT) [compound 830152]	23
798768 (kG*kA*kG*dA*dT*d[5mC]*d[5mC]*dG*dG*d[5mC]*d[5mC]*dA*d[5mC]*k[5mC]*kT*kG; antisense) [compound 798768]	42

same assay, conditions: Hep3B cells, electroporation with 10,000 nM antisense oligonucleotide, approximately 24 hours, primer probe set RTS5062, relative to untreated control cells

Substance	% Inhibition [%]	% inhibition of SMAD7 mRNA expression [%]
798981 (antisense k[5mC]*kA*kT*dA*d[5mC]*dA*d[5mC]*dT*dG*dT*dG*dT*dT*kT*kG*kG) [compound 798981]	58	
799084 (antisense k[5mC]*kT*kT*dG*dG*dG*dA*dA*dG*d[5mC]*d[5mC]*d[5mC]*dA*kT*k[5mC]*kT) [compound 799084]		0
799126 (antisense kG*kA*k[5mC]*dA*dT*d[5mC]*d[5mC]*d[5mC]*d[5mC]*dG*d[5mC]*dT*dT*kG*k[5mC]*kT) [compound 799126]		4
798675 (antisense k[5mC]*kA*kG*dG*d[5mC]*dG*d[5mC]*dA*dG*dG*d[5mC]*dG*dA*k[5mC]*kA*kG) [compound 798675]		51
799398 (antisense k[5mC]*kT*kT*dG*dG*dA*dA*dA*dA*dT*dG*dA*dA*k[5mC]*kT*kT) [compound 799398]		48
799049 (antisense kG*k[5mC]*k[5mC]*d[5mC]*dG*dT*dG*dT*d[5mC]*d[5mC]*dT*dT*dG*kA*kT*kG) [compound 799049]		44
798775 (k[5mC]*k[5mC]*kT*d[5mC]*dT*dT*dG*dA*d[5mC]*dT*dT*d[5mC]*d[5mC]*kG*kA*kG; antisense) [compound 798775]		0
799233 (k[5mC]*kA*kT*dT*d[5mC]*dA*dG*d[5mC]*dT*dA*dG*dG*dT*kG*kA*kT; antisense) [compound 799233]		28
799038 (kG*kG*kA*d[5mC]*d[5mC]*d[5mC]*d[5mC]*dA*dG*d[5mC]*d[5mC]*dG*d[5mC]*k[5mC]*kA*kG; antisense) [compound 799038]	19	
799238 (kA*kA*kT*dG*dG*dA*dA*d[5mC]*dA*dT*dA*dA*dA*k[5mC]*kT*k[5mC]; antisense) [compound 799238]	17	

same assay, conditions: Hep3B cells, electroporation, 10,000 nM antisense oligonucleotide, approximately 24 hours, RTS5062, relative to untreated control cells

Substance	% inhibition of SMAD7 mRNA expression [%]
799581 (k[5mC]*kA*kA*dA*d[5mC]*d[5mC]*dT*dT*d[5mC]*d[5mC]*dG*dA*dA*kA*kG*kG; antisense) [compound 799581]	0
799820 (antisense k[5mC]*k[5mC]*k[5mC]*d[5mC]*dA*dG*d[5mC]*dA*dG*dG*dG*dT*dT*kT*kT*kG) [compound 799820]	0
799280 (antisense kA*kG*k[5mC]*dA*d[5mC]*d[5mC]*dT*dT*dG*dT*d[5mC]*dA*d[5mC]*k[5mC]*k[5mC]*kG) [compound 799280]	44
799500 (antisense kG*kA*kG*d[5mC]*dA*dG*dA*d[5mC]*dG*dG*dG*d[5mC]*dA*kA*kG*kT) [compound 799500]	28

same assay, conditions: SMAD7 mRNA, Hep3B cells, 10,000 nM antisense oligonucleotide, electroporation, approximately 24 hours, primer probe set RTS5062, relative to untreated control cells

Substance	% Inhibition [%]
800776 (antisense kG*kA*kG*dG*d[5mC]*dA*d[5mC]*dG*d[5mC]*dG*dG*dT*dG*k[5mC]*kG*k[5mC]) [compound 800776]	36
829773 (antisense kG*kT*kA*dG*dG*dA*d[5mC]*dG*dA*dG*dG*dG*d[5mC]*kG*kG*k[5mC]) [compound 829773]	50
790521 (kG*kG*k[5mC]*dT*dG*dT*dA*d[5mC]*dG*d[5mC]*d[5mC]*dT*dT*k[5mC]*kT*k[5mC]; antisense) [compound 790521]	19
800798 (antisense k[5mC]*k[5mC]*kT*dG*dG*dA*dG*dT*d[5mC]*d[5mC]*dG*dG*dG*kT*kT*kG) [compound 800798]	36

same assay, conditions: SMAD7 mRNA, Hep3B cells, electroporation with 10,000 nM antisense oligonucleotide, approximately 24 hours, primer probe set RTS5062, relative to untreated control cells

Substance	% Inhibition [%]
829983 (kG*kG*k[5mC]*dG*dG*dT*dG*dA*dT*dT*dG*d[5mC]*d[5mC]*kT*kT*kG; antisense) [compound 829983]	43
829852 (antisense kT*k[5mC]*kT*dT*dG*dT*dT*dG*dT*d[5mC]*d[5mC]*dG*dA*kA*kT*kT) [compound 829852]	33
829835 (k[5mC]*kA*kG*dT*dG*dT*dG*dA*d[5mC]*d[5mC]*dG*dA*dT*k[5mC]*k[5mC]*k[5mC]; antisense) [compound 829835]	52
829890 (antisense kA*kA*kG*d[5mC]*d[5mC]*d[5mC]*dG*dT*d[5mC]*d[5mC]*dA*d[5mC]*dG*kG*k[5mC]*kT) [compound 829890]	0
829992 (kG*k[5mC]*kA*dG*dG*dG*d[5mC]*d[5mC]*dG*d[5mC]*dG*dA*dG*kG*k[5mC]*kG; antisense) [compound 829992]	10
829834 (kG*kT*kG*dT*dG*dA*d[5mC]*d[5mC]*dG*dA*dT*d[5mC]*d[5mC]*k[5mC]*k[5mC]*kA; antisense) [compound 829834]	29
829830 (kA*kA*kT*d[5mC]*dT*dG*dA*dA*dA*dG*d[5mC]*d[5mC]*d[5mC]*k[5mC]*k[5mC]*k[5mC]; antisense) [compound 829830]	36
829925 (kA*kT*kG*d[5mC]*dT*d[5mC]*dA*dT*dT*dG*dA*dG*d[5mC]*kT*kA*kA; antisense) [compound 829925]	37
